This is an account of results in patent US6770299B1, “Lipid matrix-drug conjugates particle for controlled release of active ingredient” (PharmaSol GmbH, priority 1999, dated 2004).

The subject of test [1] is HL 60 tumor cells (human myeloid leukemia cell line). Description: Differentiation of HL 60 tumor cells, NBT reduction. In kind it is cell-based. Particulars: HL 60 cells, free tributyrin dissolved in ethanol. The procedure: The effectiveness of tributyrin drug vehicles was measured in HL 60 tumor cells (human myeloid leukemia cell line). HL 60 cells are a sensitive indicator of the effect of tributyrin. It brings about a differentiation of the tumor cells to granulocyte-like cells. The latter have the property of reducing NBT (nitro-blue tetrazolium) to a blue dye (H. P. Koeffler et al. Blood 62 1 (983) 709-721). Tributyrin-compritol particles, consisting of equal parts of tributyrin and compritol (glycerine tribehenate) were prepared as in Example 1. The overall lipid concentration was 5%, the Poloxamer 188 concentration likewise 5%. The particle size was 147 nm (PCS diameter), the polydispersion index 0.321. The differentiation effect was compared with that of free tributyrin, dissolved in ethanol. […] An adequate quantity of tributyrin-compritol nanoparticle dispersion was, like the corresponding quantities of surfactant solution and pure compritol particle dispersion, added to HL 60 cells and the NBT reduction ascertained after 6 days' incubation time at 37° C. and 5% carbon dioxide content.

The test system of a further test is solid tumors. Particulars: oral preparation, phase 1 study; cited from earlier work.

Take `CCCC(=O)OCC(COC(=O)CCC)OC(=O)CCC` [tributyrin, 1,2,3 butyric acid glycerol ester]: the “effective 50% dosage (ED 50%), differentiation effect” value in test [1] is 130 µM. In addition, the tumor regression result with solid tumors was “No significant tumor regression”.
